Reference: patent EP2864333B1, “ETODOLAC DERIVATIVES AS HCV NS5B POLYMERASE INHIBITORS” (priority 2012, dated 2014)
Where two headings read alike, the source gives them in different places.

Key:
[1] = biological target: T1, HCV NS5B RdRp (NS5BCdelta21) (Hepatitis C virus genotype 1b, UniProt P26663); test: HCV NS5B RNA-dependent RNA polymerase (RdRp) assay, poly rA/U12 primer-dependent elongation; assay type: biochemical; settings: read-out: Anti-HCV Activity (%Inhibition, 100 µM)
T1 construct: 500 ng of NS5BCdelta21; made in house; host or cells: Escherichia coli DH5alpha

[2] = biological target: T1, HCV NS5B RdRp (NS5BCdelta21); test: as above; assay type: biochemical; settings: for inhibition at 100 µM: read-out: Anti-NS5B Activity (% Inhibition, 100 µM); for inhibition at 200 µM: read-out: Anti-NS5B Activity (% Inhibition, 200 µM)
Protocol: The RdRp activity of NS5B was evaluated by the standard primer-dependent elongation reactions employing poly rA/U12 template-primers (TP). Reaction mixtures containing 20 mM Tris-HCl (pH 7.0), 100 mM NaCl, 100 mM Na-glutamate, 0.5 mM DTT, 0.01% BSA, 0.01% Tween-20, 5% glycerol, 20 U/ml of RNasin, 0.5 microM of poly rA/U12, 25 microM UTP, 2-5 microCi [alpha-32P]UTP, 500 ng of NS5BCdelta21 and 0.5 mM MnCl2 with or without inhibitors in a total volume of 25 microliters were incubated for 1 h at 30°C. Reactions were quenched by the addition of ice cold 5% (v/v) trichloroacetic acid (TCA) containing 0.5 mM pyrophosphate (PPi), the denatured polymeric RNA products were transferred to GF-B filters and the amount of radioactive UMP incorporated into RNA products was quantified on a liquid scintillation counter (Packard). The concentrations of the compounds inhibiting 50% of NS5B RdRp activity (IC50) were calculated from the inhibition curves as a function of inhibitor concentration. Nsp12 activity was similarly evaluated except that incubations were carried out at 25°C for optimal enzymatic activity.
The ability of the compounds to inhibit HCV NS5B RdRp activity was investigated in vitro by polyrA-U12 extension assay as described in experimental section by Kaushik-Basu N, et al.. The compounds SGK 224-230, 313 and SGK 238- 244, 315 were reconstituted in DMSO as 50 mM stocks, and serially diluted in DMSO to obtain working stocks.
Preliminary screening was carried out at 100 µM to identify a wider range of compounds. […] NS5B RdRp activity in the absence of the inhibitor was taken as 100 percent after subtraction of residual background activity. The concentration of DMSO in all reactions was kept constant at 5%. […] Curves were fitted to data points using nonlinear regression analysis and IC50 values were interpolated from the resulting curves using GraphPad Prism 3.03 software.

[3] = dose-response curves, 8-10 concentrations, duplicate, two independent experiments, read-out: IC50

T1 sequence (P26663 2420-2989): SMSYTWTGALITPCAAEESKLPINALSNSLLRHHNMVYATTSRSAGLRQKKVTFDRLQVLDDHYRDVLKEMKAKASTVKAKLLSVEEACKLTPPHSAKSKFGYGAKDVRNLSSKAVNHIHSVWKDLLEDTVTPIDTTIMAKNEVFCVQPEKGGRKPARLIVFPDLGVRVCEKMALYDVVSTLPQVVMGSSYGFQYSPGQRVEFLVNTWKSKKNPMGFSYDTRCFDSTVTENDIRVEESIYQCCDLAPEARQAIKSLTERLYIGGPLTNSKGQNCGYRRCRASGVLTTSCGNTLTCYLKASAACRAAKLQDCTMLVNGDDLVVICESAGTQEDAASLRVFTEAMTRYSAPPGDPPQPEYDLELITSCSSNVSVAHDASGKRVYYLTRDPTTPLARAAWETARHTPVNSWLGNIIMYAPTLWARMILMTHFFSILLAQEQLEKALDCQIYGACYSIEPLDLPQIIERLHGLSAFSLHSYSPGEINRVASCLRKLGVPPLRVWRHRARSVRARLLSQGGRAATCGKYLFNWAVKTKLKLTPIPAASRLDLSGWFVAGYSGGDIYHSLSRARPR

## CCc1cccc2c3c([nH]c12)C(CC)(CC(=O)O)OCC3 (racemic) [Etodolac, (R,S)-2-[1,8-diethyl-1,3,4-tetrahydrapyrano[3,4-b]indole-1-yl]acetic acid]
[1]
  inhibition at 100 µM: 7.4%

## CCc1cccc2c3c([nH]c12)C(CC)(CC(=O)OC)OCC3 (racemic) [SGK 196, methyl (1,8-diethyl-1,3,4,9-tetrahydropirano[3,4-b]indole-1-yl) acetate]
[2]
  inhibition at 100 µM: 6.4 ± 0.9%
  inhibition at 200 µM: 13.3 ± 1.2%

## CCc1cccc2c3c([nH]c12)C(CC)(CC(=O)NN)OCC3 (stereo not drawn) [SGK 197, 2-(1,8-diethyl-1,3,4,9-tetrahydropyrano[3,4-b]indole-1-yl)acetohydrazide]
[2]
  inhibition at 100 µM: 11.4 ± 0.2%
  inhibition at 200 µM: 19 ± 4.4%

## CCc1cccc2c3c([nH]c12)C(CC)(CC(=O)NN=Cc1cccc(F)c1)OCC3 (stereo not drawn) [SGK 202, 2-(1,8-Diethyl-1,3,4,9-tetrahydropyrano[3,4-b]indole-1-yl) acetic acid [(3-fluorophenyl)methylene] hydrazide]
[2]
  IC50: 35.9 ± 1.4 µM
  inhibition at 100 µM: 61.6 ± 0.4%
  inhibition at 200 µM: 66.4 ± 5.8%

## CCc1cccc2c3c([nH]c12)C(CC)(CC(=O)NNC(=S)NC)OCC3 (stereo not drawn) [SGK 224, 1-[2-(1,8-diethyl-1,3,4,9-tetrahydropyrano[3,4-b]indol-1-yl)acetyl]-4-methyl thiosemicarbazide]
[2]; [3]
  IC50: 18.7 µM
[2]
  inhibition at 100 µM: 76.2 ± 0.5%
  inhibition at 200 µM: 77.5 ± 1.3%

## C=CCNC(=S)NNC(=O)CC1(CC)OCCc2c1[nH]c1c(CC)cccc21 (stereo not drawn) [SGK 229, 1-[2-(1,8-Diethyl-1,3,4,9-tetrahydropyrano[3,4-b]indole-1-yl)acetyl]-4-allyl thiosemicarbazide]
[2]; [3]
  IC50: 16.8 ± 1.2 µM
[2]
  inhibition at 100 µM: 78.6 ± 2.1%
  inhibition at 200 µM: 81.6 ± 0.8%

## CCc1cccc2c3c([nH]c12)C(CC)(Cc1n[nH]c(=S)n1C)OCC3 (stereo not drawn) [SGK 238, 5-[(1,8-diethyl-1,3,4,9-tetrahydropyrano[3,4-b]indol-1-yl)methyl]-4-methyl-2,4-dihydro-3H-1,2,4-triazole-3-thione]
[2]
  IC50: 14.8 µM
  inhibition at 100 µM: 78.9 ± 0.7%
  inhibition at 200 µM: 86 ± 0.6%

## COc1cc(O)c2c(c1)oc(=O)c1c3cc(O)c(O)cc3oc21 [Wedelolacton, reference compound]
[2]; [3]
  IC50: 36 µM
